Laboratory results as given in ChEMBL document CHEMBL1697781, “Assessment of the health effects of chemicals in humans: II. Construction of an adverse effects database for QSAR modeling” (Curr Drug Discov Technol, 2004).

Legend:
Details in all cases: human; call rule not given here
[1] = test system: Hepatotoxicity; assay: FDA HLAED, serum glutamic oxaloacetic transaminase (SGOT) increase
[2] = test system: Hepatotoxicity; assay: FDA HLAED, gamma-glutamyl transferase (GGT) increase
[3] = test system: Hepatotoxicity; assay: FDA HLAED, lactate dehydrogenase (LDH) increase
[4] = test system: Hepatotoxicity; assay: FDA HLAED, serum glutamic pyruvic transaminase (SGPT) increase
[5] = test system: Hepatotoxicity; assay: FDA HLAED, liver enzyme composite activity
[6] = test system: Hepatotoxicity; assay: FDA HLAED, alkaline phosphatase increase
Throughout, for GGT Increase - Index Value: reference of the scale not given here.
Throughout, for LDH Increase - Index Value: reference of the scale not given here.

| SMILES | SGOT Increase - Activity Score [1] | SGOT Increase - Index Value [1] | SGOT Increase - Number of Reports [1] | GGT Increase - Activity Score [2] | GGT Increase - Index Value [2] | GGT Increase - Number of Reports [2] | LDH Increase - Activity Score [3] | LDH Increase - Index Value [3] | LDH Increase - Number of Reports [3] | SGPT Increase - Activity Score [4] | SGPT Increase - Index Value [4] | SGPT Increase - Number of Reports [4] | Composite Activity - Active [5] | Composite Activity - Marginal [5] | Composite Activity - Score [5] | Alkaline Phosphatase Increase - Activity Score [6] | Alkaline Phosphatase Increase - Index Value [6] | Alkaline Phosphatase Increase - Number of Reports [6] |
| --- | --- | --- | --- | --- | --- | --- | --- | --- | --- | --- | --- | --- | --- | --- | --- | --- | --- | --- |
| CN(Cc1ccc(C(C)(C)C)cc1)Cc1cccc2ccccc12 [BUTENAFINE] | Inactive | 0 | < 4 | Inactive | 0 | < 4 | Inactive | 0 | < 4 | Inactive | 0 | < 4 | 0 | 0 | Inactive | Inactive | 0 | < 4 |
| Clc1ccc(CCC(Cn2ccnc2)Sc2c(Cl)cccc2Cl)cc1 (stereo unspecified) [BUTOCONAZOLE] | Inactive | 0 | < 4 | Inactive | 0 | < 4 | Inactive | 0 | < 4 | Inactive | 0.2 | < 4 | 0 | 0 | Inactive | Inactive | 0.2 | < 4 |
| Oc1ccc2c(c1)[C@@]13CCCC[C@@]1(O)[C@@H](C2)N(CC1CCC1)CC3 [BUTORPHANOL] | Inactive | 0 | < 4 | Inactive | 0 | < 4 | Inactive | 0 | < 4 | Inactive | 0 | < 4 | 0 | 0 | Inactive | Inactive | 0 | < 4 |
| C=CCN1C[C@H](C(=O)N(CCCN(C)C)C(=O)NCC)C[C@@H]2c3cccc4[nH]cc(c34)C[C@H]21 [CABERGOLINE] | Inactive | 0 | < 4 | Inactive | 0 | < 4 | Inactive | 0 | < 4 | Inactive | 0 | < 4 | 0 | 0 | Inactive | Inactive | 0 | < 4 |
| C=C1/C(=C\C=C2/CCC[C@]3(C)[C@@H]([C@H](C)/C=C/[C@@H](O)C4CC4)CC[C@@H]23)C[C@@H](O)C[C@@H]1O [CALCIPOTRIENE] | Inactive | 0.3 | < 4 | Inactive | 0 | < 4 | Inactive | 0 | < 4 | Inactive | 0 | < 4 | 0 | 0 | Inactive | Inactive | 0 | < 4 |
| C=C1/C(=C\C=C2/CCC[C@]3(C)[C@@H]([C@H](C)CCCC(C)(C)O)CC[C@@H]23)C[C@@H](O)C[C@@H]1O [CALCITRIOL] | Inactive | 0 | < 4 | Inactive | 0 | < 4 | Inactive | 0 | < 4 | Inactive | 0 | < 4 | 0 | 0 | Inactive | Inactive | 0 | < 4 |
| C[C@H](CS)C(=O)N1CCC[C@H]1C(=O)O [CAPTOPRIL] | Inactive | 1.5 | >= 4 | Inactive | 0 | < 4 | Inactive | 0.4 | < 4 | Inactive | 0.7 | >= 4 | 0 | 0 | Inactive | Inactive | 1.1 | >= 4 |
